Experimental data: US10294202B2, “Pyrrolidinones as herbicides” (FMC Corporation, priority 2013, dated 2019)

Key:
[1] = tested on: barnyardgrass; assay: Test C pre-/postemergence herbicide test; assay type: in vivo, Echinochloa crus-galli
Procedure, shortened: (§1)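 Pre- and postemergence greenhouse screen. Preemergence treatment went onto freshly planted seeds in loam–sand soil; postemergence treatment went onto plants 2 to 18 cm tall at the 1- to 4-leaf stage in sphagnum peat/vermiculite medium. Scoring at 13 to 15 days used a 0–100 control scale.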

[2] = tested on: oat, wild; assay: Test C pre-/postemergence herbicide test; assay type: in vivo, Avena fatua; conditions: Postemergence
Procedure, shortened: as §1

[3] = tested on: pigweed; assay: Test C pre-/postemergence herbicide test; assay type: in vivo, Amaranthus retroflexus
Procedure, shortened: as §1

[4] = tested on: corn; assay: Test C pre-/postemergence herbicide test; assay type: in vivo, Zea mays
Procedure, shortened: as §1

[5] = tested on: rice; assay: Test B flooded paddy test; assay type: in vivo, Oryza sativa; conditions: 1000 g ai/ha, Flood; scale of 0 to 100 where 0 is no effect and 100 is complete control
Procedure, shortened: (§2)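 Scored visually 0–100 (0 no effect, 100 complete control) versus controls after 13 to 15 greenhouse days. Treatment: compound added to paddy water kept 3 cm above soil, on 2-leaf-stage plants.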

[6] = tested on: morningglory; assay: Test C pre-/postemergence herbicide test; assay type: in vivo, Ipomoea coccinea
Procedure, shortened: as §1

[7] = tested on: velvetleaf; assay: Test C pre-/postemergence herbicide test; assay type: in vivo, Abutilon theophrasti
Procedure, shortened: as §1

[8] = tested on: waterhemp; assay: Test C pre-/postemergence herbicide test; assay type: in vivo, Amaranthus rudis
Procedure, shortened: as §1

[9] = tested on: wheat (winter wheat); assay: Test C pre-/postemergence herbicide test; assay type: in vivo, Triticum aestivum
Procedure, shortened: as §1

[10] = tested on: oilseed rape; assay: Test C pre-/postemergence herbicide test; assay type: in vivo, Brassica napus
Procedure, shortened: as §1

[11] = tested on: soybean; assay: Test C pre-/postemergence herbicide test; assay type: in vivo, Glycine max
Procedure, shortened: as §1

[12] = tested on: ducksalad; assay: Test B flooded paddy test; assay type: in vivo, Heteranthera limosa; conditions: 1000 g ai/ha, Flood; scale of 0 to 100 where 0 is no effect and 100 is complete control
Procedure, shortened: as §2

[13] = Postemergence, 31 g ai/ha, scale 0 (no effect) to 100 (complete control)
[14] = Postemergence, 62 g ai/ha, scale 0 to 100 (0 no effect, 100 complete control)
[15] = Postemergence, 125 g ai/ha, scale 0 to 100 (0 no effect, 100 complete control)
[16] = Postemergence, 250 g ai/ha, scale 0 to 100 (0 no effect, 100 complete control)
[17] = Preemergence, 31 g ai/ha, scale 0 to 100, 0 is no effect and 100 is complete control
[18] = Preemergence, 62 g ai/ha, scale 0 to 100
[19] = Preemergence, 125 g ai/ha, scale 0 to 100 (0 no effect, 100 complete control)

Cc1ccccc1NC(=O)C1C(=O)NCC1c1cccc(C(F)(F)F)c1 (racemic) [Compound 109] was tested, and the “Plant response rating, Barnyardgrass” value [1, 13] was 0, the “Plant response rating, Barnyardgrass” value [1, 14] was 0 and the “Plant response rating, Barnyardgrass” value [1, 15] was 0. The “Plant response rating, Barnyardgrass” value [1, 16] was 45, the “Barnyardgrass plant response rating” value [1, 17] was 70 and the “Plant response rating, Barnyardgrass” value [1, 18] was 85. The “Plant response rating, Barnyardgrass” value [1, 19] was 95, the “Plant response rating (scale of 0 to 100; 0 is no effect, 100 is complete control), Barnyardgrass” value ([1]; Preemergence, 250 g ai/ha) was 98 and the “Plant response rating, Oat, Wild” value ([2]; 31 g ai/ha, scale 0 (no effect) to 100 (complete control)) was 0. For the same molecule, the “Plant response rating, Oat, Wild” value ([2]; 62 g ai/ha, scale 0 to 100 (0 no effect, 100 complete control)) was 0, the “Plant response rating, Oat, Wild” value ([2]; 125 g ai/ha, scale 0 to 100 (0 no effect, 100 complete control)) was 0 and the “Plant response rating, Oat, Wild” value ([2]; 250 g ai/ha, scale 0 to 100 (0 no effect, 100 complete control)) was 0. The “Plant response rating, Pigweed” value [3, 13] was 5, the “Plant response rating, Pigweed” value [3, 14] was 5 and the “Plant response rating, Pigweed” value [3, 15] was 5. For the same molecule, the “Plant response rating, Pigweed” value [3, 16] was 10, the “Pigweed plant response rating” value [3, 17] was 30 and the “Plant response rating, Pigweed” value [3, 18] was 0. The “Plant response rating, Pigweed” value [3, 19] was 0, the “Plant response rating (scale of 0 to 100), Pigweed” value ([3]; Preemergence, 250 g ai/ha) was 20 and the “Plant response rating, Corn” value [4, 13] was 0. For the same molecule, the “Plant response rating, Corn” value [4, 14] was 0, the “Plant response rating, Corn” value [4, 15] was 0 and the “Plant response rating, Corn” value [4, 16] was 5. The “Corn plant response rating” value [4, 17] was 0, the “Plant response rating, Corn” value [4, 18] was 5 and the “Plant response rating, Corn” value [4, 19] was 60. The “Plant response rating (scale of 0 to 100), Corn” value ([4]; Preemergence, 250 g ai/ha) was 75, the “Plant response rating, Rice” value [5] was 0 and the “Plant response rating, Morningglory” value [6, 13] was 20. For the same molecule, the “Plant response rating, Morningglory” value [6, 14] was 0, the “Plant response rating, Morningglory” value [6, 15] was 5 and the “Plant response rating, Morningglory” value [6, 16] was 15. The “Morningglory plant response rating” value [6, 17] was 0, the “Plant response rating, Morningglory” value [6, 18] was 0 and the “Plant response rating, Morningglory” value [6, 19] was 5. The “Plant response rating (scale of 0 to 100), Morningglory” value ([6]; Preemergence, 250 g ai/ha) was 30, the “Plant response rating, Velvetleaf” value [7, 13] was 0 and the “Plant response rating, Velvetleaf” value [7, 14] was 0. The “Plant response rating, Velvetleaf” value [7, 15] was 0, the “Plant response rating, Velvetleaf” value [7, 16] was 5 and the “Velvetleaf plant response rating” value [7, 17] was 0. The “Plant response rating, Velvetleaf” value [7, 18] was 0, the “Plant response rating, Velvetleaf” value [7, 19] was 0 and the “Plant response rating (scale of 0 to 100), Velvetleaf” value ([7]; Preemergence, 250 g ai/ha) was 10. The “Plant response rating, Waterhemp” value [8, 13] was 0, the “Plant response rating, Waterhemp” value [8, 14] was 0 and the “Plant response rating, Waterhemp” value [8, 15] was 0. For the same molecule, the “Plant response rating, Waterhemp” value [8, 16] was 0, the “Waterhemp plant response rating” value [8, 17] was 0 and the “Plant response rating, Waterhemp” value [8, 18] was 50. The “Plant response rating, Waterhemp” value [8, 19] was 0, the “Plant response rating (scale of 0 to 100), Waterhemp” value ([8]; Preemergence, 250 g ai/ha) was 20 and the “Plant response rating, Wheat” value [9, 13] was 0. For the same molecule, the “Plant response rating, Wheat” value [9, 14] was 0, the “Plant response rating, Wheat” value [9, 15] was 0 and the “Plant response rating, Wheat” value [9, 16] was 0. The “Wheat plant response rating” value [9, 17] was 0, the “Plant response rating, Wheat” value [9, 18] was 10 and the “Plant response rating, Wheat” value [9, 19] was 50. The “Plant response rating (scale of 0 to 100), Wheat” value ([9]; Preemergence, 250 g ai/ha) was 85, the “Plant response rating, Oilseed Rape” value [10, 13] was 0 and the “Plant response rating, Oilseed Rape” value [10, 14] was 0. For the same molecule, the “Plant response rating, Oilseed Rape” value [10, 15] was 5, the “Plant response rating, Oilseed Rape” value [10, 16] was 5 and the “Oilseed Rape plant response rating” value [10, 17] was 0. For the same molecule, the “Plant response rating, Oilseed Rape” value [10, 18] was 0, the “Plant response rating, Oilseed Rape” value [10, 19] was 5 and the “Plant response rating (scale of 0 to 100), Oilseed Rape” value ([10]; Preemergence, 250 g ai/ha) was 40. The “Plant response rating, Soybean” value [11, 13] was 0, the “Plant response rating, Soybean” value [11, 14] was 0 and the “Plant response rating, Soybean” value [11, 15] was 5. The “Plant response rating, Soybean” value [11, 16] was 5, the “Soybean plant response rating” value [11, 17] was 100 and the “Plant response rating, Soybean” value [11, 18] was 0. The “Plant response rating, Soybean” value [11, 19] was 55, the “Plant response rating (scale of 0 to 100), Soybean” value ([11]; Preemergence, 250 g ai/ha) was 0 and the “Plant response rating, Ducksalad” value [12] was 95.
